Data from US20080009418A1, “Selective Inhibitors” (Alchemia LTD., priority 2004, published 2008).

How the values were obtained:
[1] = molecular target: T1, Human δ-opioid (DOP) (Homo sapiens, UniProt P41143); assay: Radioligand binding, human δ-opioid (DOP) membranes, FlashPlate, [3H]-Bremazocine; conditions: compound at 10 μM, [3H]-Bremazocine
T1 construct: purchased Perkin Elmer Biosignal
Outline: (§1)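 Cloned human receptor membranes were coated onto FlashPlate wells and incubated with radioligand and compound (added from a 0.5 mM DMSO daughter plate) for 1 hour at room temperature in the dark. Scintillation counting gave percent inhibition, with DMSO defining total and reference ligand defining non-specific binding.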

[2] = molecular target: T2, Human κ-Opioid (KOP) (Homo sapiens, UniProt P41145); assay: Radioligand binding, human κ-opioid (KOP) membranes, filtration, [3H]-Diprenorphine; conditions: compound at 10 μM, [3H]-Diprenorphine
T2 construct: purchased Perkin Elmer Biosignal
T2 sequence (P41145 whole entry): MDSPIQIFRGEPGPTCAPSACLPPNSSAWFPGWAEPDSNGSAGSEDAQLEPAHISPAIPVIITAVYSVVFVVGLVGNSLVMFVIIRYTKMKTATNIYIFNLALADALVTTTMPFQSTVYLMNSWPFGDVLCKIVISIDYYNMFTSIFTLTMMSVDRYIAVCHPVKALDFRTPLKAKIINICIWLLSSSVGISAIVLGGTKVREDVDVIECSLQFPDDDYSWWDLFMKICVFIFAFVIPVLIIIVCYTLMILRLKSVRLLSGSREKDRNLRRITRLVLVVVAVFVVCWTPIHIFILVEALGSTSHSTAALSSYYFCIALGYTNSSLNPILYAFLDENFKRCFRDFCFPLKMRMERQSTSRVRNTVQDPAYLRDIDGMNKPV
Outline: (§2)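 Membranes from cloned human receptors were incubated with compound and radioligand for 1 hour at room temperature. Bound ligand was collected on 0.3% PEI-soaked filters, washed with cold 50 mM Tris-HCl pH 7.4, and counted by scintillation. Percent inhibition was computed against DMSO totals and reference-ligand nonspecific wells.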

[3] = molecular target: T3, Human Melanocortin (MC3) (Homo sapiens, UniProt P41968); assay: Radioligand binding, human melanocortin MC3 membranes, FlashPlate, [125I]-NDP-αMSH; conditions: compound at 10 μM, [125I]-NDP-αMSH
T3 construct: purchased Perkin Elmer Biosignal
T3 sequence (P41968 whole entry): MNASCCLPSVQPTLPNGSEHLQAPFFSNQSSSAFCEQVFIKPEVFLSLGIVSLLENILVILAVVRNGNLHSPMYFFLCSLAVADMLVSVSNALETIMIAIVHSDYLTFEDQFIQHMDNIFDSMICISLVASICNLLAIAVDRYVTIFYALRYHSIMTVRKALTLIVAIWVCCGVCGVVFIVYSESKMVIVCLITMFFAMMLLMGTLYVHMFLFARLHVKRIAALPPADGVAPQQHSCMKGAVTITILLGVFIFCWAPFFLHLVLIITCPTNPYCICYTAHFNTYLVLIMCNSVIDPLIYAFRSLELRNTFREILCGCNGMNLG
Outline: as §1

[4] = molecular target: T4, Human Melanocortin (MC4) (Homo sapiens, UniProt P32245); assay: Radioligand binding, human melanocortin MC4 membranes, FlashPlate, [125I]-NDP-αMSH; conditions: compound at 10 μM, [125I]-NDP-αMSH
T4 construct: purchased Perkin Elmer Biosignal
T4 sequence (P32245 whole entry): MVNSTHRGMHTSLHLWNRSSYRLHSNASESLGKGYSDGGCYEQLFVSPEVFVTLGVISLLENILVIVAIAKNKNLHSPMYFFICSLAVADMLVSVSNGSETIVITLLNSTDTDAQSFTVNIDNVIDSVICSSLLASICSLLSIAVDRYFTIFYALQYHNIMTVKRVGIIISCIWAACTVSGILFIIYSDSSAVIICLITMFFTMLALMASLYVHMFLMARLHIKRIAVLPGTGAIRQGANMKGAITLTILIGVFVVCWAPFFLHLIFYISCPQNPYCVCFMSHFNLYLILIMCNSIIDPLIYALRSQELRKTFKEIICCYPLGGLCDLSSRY
Outline: as §1

[5] = molecular target: T5, Human melanocortin (MC5) (Homo sapiens, UniProt P33032); assay: Radioligand binding, human melanocortin MC5 membranes, FlashPlate, [125I]-NDP-αMSH; conditions: compound at 10 μM, [125I]-NDP-αMSH
T5 construct: purchased Perkin Elmer Biosignal
T5 sequence (P33032 whole entry): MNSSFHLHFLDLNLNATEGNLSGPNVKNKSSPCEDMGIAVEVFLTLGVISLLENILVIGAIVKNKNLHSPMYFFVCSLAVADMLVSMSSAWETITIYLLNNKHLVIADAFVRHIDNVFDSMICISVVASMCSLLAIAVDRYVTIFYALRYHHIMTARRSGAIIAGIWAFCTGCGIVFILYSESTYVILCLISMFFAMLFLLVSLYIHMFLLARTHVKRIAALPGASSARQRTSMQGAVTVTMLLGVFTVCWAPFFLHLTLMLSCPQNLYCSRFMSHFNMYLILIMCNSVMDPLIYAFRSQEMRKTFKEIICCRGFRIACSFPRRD
Outline: as §1

[6] = molecular target: T6, Human melanin-concentrating hormone (MCH1) (Homo sapiens, UniProt Q99705); assay: Radioligand binding, human melanin-concentrating hormone MCH1 membranes, FlashPlate, [125I]-S36057; conditions: compound at 10 μM; for A6 radioligand binding, percentage inhibition: [125I]-S36057
T6 construct: purchased Perkin Elmer Biosignal
T6 sequence (Q99705 whole entry): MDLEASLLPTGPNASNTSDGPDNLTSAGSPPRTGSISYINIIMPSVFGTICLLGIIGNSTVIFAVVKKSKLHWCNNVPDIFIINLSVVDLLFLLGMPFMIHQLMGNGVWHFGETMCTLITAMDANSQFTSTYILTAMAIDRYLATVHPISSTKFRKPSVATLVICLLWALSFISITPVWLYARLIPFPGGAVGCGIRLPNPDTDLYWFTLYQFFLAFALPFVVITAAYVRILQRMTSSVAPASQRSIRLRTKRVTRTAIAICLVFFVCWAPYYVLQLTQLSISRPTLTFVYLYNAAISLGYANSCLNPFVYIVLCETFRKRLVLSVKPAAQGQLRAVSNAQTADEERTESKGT
Outline: as §1

[7] = molecular target: T7, Human μ-opioid (MOP) (Homo sapiens, UniProt P35372); assay: Radioligand binding, human μ-opioid (MOP) membranes, FlashPlate, [3H]-Naloxone; conditions: compound at 10 μM, [3H]-Naloxone
T7 construct: purchased Perkin Elmer Biosignal
T7 sequence (P35372 whole entry): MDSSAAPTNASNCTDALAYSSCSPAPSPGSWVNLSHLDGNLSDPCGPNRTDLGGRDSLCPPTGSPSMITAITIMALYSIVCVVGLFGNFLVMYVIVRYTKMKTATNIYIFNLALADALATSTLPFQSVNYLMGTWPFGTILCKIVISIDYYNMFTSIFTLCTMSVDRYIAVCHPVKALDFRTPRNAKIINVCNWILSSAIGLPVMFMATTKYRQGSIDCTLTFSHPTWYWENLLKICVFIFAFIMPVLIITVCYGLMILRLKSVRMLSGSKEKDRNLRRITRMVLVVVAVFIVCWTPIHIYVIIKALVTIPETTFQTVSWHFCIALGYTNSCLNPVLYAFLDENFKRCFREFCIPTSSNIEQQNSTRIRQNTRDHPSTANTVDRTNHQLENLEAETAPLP
Outline: as §1

[8] = molecular target: T8, Human neurokinin (NK1) (Homo sapiens, UniProt P25103); assay: Radioligand binding, human neurokinin NK1 membranes, filtration, [125I]-Substance P; conditions: compound at 10 μM, [125I]-Substance P
T8 construct: purchased Perkin Elmer Biosignal
T8 sequence (P25103 whole entry): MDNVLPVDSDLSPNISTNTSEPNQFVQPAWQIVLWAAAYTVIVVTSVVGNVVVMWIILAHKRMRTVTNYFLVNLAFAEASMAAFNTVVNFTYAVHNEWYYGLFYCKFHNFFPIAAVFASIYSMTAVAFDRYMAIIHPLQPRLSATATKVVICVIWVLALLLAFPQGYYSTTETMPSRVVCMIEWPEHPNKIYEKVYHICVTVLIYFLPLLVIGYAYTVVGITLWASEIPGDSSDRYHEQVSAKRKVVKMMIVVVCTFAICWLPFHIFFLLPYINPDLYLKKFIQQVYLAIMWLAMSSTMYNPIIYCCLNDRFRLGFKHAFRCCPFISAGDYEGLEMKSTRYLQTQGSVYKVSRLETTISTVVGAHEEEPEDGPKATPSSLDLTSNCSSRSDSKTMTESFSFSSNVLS
Outline: as §2

[9] = molecular target: T9, Human neuropeptide Y (NPY-Y1) (Homo sapiens, UniProt P25929); assay: Radioligand binding, human neuropeptide Y NPY-Y1 membranes, FlashPlate, [125I]-PYY; conditions: compound at 10 μM, [125I]-PYY
T9 construct: purchased Perkin Elmer Biosignal
T9 sequence (P25929 1-384): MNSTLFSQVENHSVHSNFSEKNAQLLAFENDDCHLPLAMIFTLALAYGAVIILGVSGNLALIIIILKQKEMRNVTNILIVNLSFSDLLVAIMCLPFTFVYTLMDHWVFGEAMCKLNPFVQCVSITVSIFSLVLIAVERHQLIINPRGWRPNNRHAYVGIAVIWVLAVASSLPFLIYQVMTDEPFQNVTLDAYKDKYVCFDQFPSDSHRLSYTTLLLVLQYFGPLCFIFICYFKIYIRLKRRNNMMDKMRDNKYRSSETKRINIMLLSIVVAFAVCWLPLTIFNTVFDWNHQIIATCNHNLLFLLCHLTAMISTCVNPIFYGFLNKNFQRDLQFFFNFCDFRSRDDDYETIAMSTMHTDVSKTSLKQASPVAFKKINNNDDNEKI
Outline: as §1

[10] = molecular target: T10, Human opioid (ORL1) (Homo sapiens, UniProt P41146); assay: Radioligand binding, human opioid ORL1 membranes, FlashPlate, [125I]-Nociceptin; conditions: compound at 10 μM, [125I]-Nociceptin
T10 construct: purchased Perkin Elmer Biosignal
T10 sequence (P41146 whole entry): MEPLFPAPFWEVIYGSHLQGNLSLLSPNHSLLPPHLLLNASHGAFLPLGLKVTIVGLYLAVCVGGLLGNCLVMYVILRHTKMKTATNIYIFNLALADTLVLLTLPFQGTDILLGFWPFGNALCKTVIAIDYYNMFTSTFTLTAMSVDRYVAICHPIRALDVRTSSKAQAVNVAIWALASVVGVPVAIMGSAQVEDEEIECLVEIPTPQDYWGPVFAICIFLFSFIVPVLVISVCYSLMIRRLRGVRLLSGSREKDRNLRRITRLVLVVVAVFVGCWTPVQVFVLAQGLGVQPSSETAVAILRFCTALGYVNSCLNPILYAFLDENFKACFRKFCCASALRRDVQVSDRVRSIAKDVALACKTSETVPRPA
Outline: as §1

[11] = molecular target: T11, Mouse urotensin (mUR2) (Mus musculus, UniProt Q8VIH9); assay: Radioligand binding, mouse urotensin mUR2 membranes, FlashPlate, [125I]-Urotensin II; conditions: compound at 10 μM, [125I]-Urotensin II
T11 construct: purchased Perkin Elmer Biosignal
T11 sequence (Q8VIH9 1-385): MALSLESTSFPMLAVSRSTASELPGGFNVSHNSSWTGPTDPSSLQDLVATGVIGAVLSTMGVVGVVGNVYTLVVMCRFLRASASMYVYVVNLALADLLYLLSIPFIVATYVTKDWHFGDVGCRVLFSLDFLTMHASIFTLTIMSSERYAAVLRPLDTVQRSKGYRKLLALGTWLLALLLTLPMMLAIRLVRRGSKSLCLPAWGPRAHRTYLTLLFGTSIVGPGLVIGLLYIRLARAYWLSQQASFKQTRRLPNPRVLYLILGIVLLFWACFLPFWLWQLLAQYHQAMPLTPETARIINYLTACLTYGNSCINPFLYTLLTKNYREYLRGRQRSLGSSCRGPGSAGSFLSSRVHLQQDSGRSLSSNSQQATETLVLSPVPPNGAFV
Outline: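 Cloned mouse urotensin (mUR2) receptor membranes from Perkin Elmer Biosignal were immobilized in FlashPlate microplates using a proprietary coating. Each well got 19.5 μl buffer, then 0.5 μl of DMSO, reference ligand, or compound. Adding 5 μl of [125I]-Urotensin II, diluted to 5× final concentration in binding buffer, started binding. Plates were sealed with TopSeal-A and incubated 1 hour at room temperature in the dark. Wells were counted for 30 seconds each on a TopCount after a 60-second delay, and percentage inhibition was calculated.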

[12] = [125I]-S36057, human MCH1 membranes

T1 sequence (P41143 whole entry): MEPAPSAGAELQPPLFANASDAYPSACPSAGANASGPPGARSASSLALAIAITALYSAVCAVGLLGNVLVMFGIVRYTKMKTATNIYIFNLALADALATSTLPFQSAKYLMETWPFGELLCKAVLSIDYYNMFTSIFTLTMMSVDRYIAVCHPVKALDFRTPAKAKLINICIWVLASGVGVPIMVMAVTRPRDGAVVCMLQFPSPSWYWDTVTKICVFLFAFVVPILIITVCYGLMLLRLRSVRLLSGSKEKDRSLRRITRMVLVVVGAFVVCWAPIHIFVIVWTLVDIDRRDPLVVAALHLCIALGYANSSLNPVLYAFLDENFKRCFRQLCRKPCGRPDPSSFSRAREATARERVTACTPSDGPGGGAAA

Structure (SMILES)	A1 radioligand binding, percentage inhibition [1]	A2 radioligand binding, percentage inhibition [2]	A3 radioligand binding, percentage inhibition [3]	A4 radioligand binding, percentage inhibition [4]	A5 radioligand binding, percentage inhibition [5]	A6 radioligand binding, percentage inhibition [6]	A7 radioligand binding, percentage inhibition [7]	A8 radioligand binding, percentage inhibition [8]	A9 radioligand binding, percentage inhibition [9]	A10 radioligand binding, percentage inhibition [10]	A11 radioligand binding, percentage inhibition [11]	A1: inhibition of radioligand binding ([1]; human DOP membranes)	A2: inhibition of radioligand binding ([2]; human KOP membranes)	A4: inhibition of radioligand binding ([4]; human MC4 membranes, 10 µM)	A5: inhibition of radioligand binding ([5]; human MC5 membranes)	A6: inhibition of radioligand binding [6, 12]	A8: inhibition of radioligand binding ([8]; human NK1 membranes)	A9: inhibition of radioligand binding ([9]; human NPY-Y1 membranes)	A10: inhibition of radioligand binding ([10]; human ORL1 membranes, 10 µM)	A11: inhibition of radioligand binding ([11]; mouse mUR2 membranes)	also measured
CO[C@H]1[C@H](O)[C@@H](COCc2cccc(O)c2)OC(OCc2ccc(Cl)cc2)[C@@H]1NC(=O)CCCN (stereo partly shown) [compound 156]	− (“−” indicates less than 50% inhibition at 10 μM)	− (“−” indicates less than 50% inhibition at 10 μM)	− (“−” indicates less than 50% inhibition at 10 μM)	− (“−” indicates less than 50% inhibition at 10 μM)	+ (“+” indicates greater than 50% inhibition at 10 μM)	− (“−” indicates less than 50% inhibition at 10 μM)	− (“−” indicates less than 50% inhibition at 10 μM)	+ (“+” indicates greater than 50% inhibition at 10 μM)	− (“−” indicates less than 50% inhibition at 10 μM)	− (“−” indicates less than 50% inhibition at 10 μM)	− (“−” indicates less than 50% inhibition at 10 μM)										
COCC1OC(OCc2ccc3ccccc3c2)C(NC(=O)CCNC(=N)N)C(OCc2ccc3ccccc3c2)C1O (stereo not shown) [compound 249]																					A1: inhibition of radioligand binding ([1]; FlashPlate): − (“−” indicates less than 50% inhibition at 10 μM); A2: inhibition of radioligand binding ([2]; filtration): − (“−” indicates less than 50% inhibition at 10 μM); A3: inhibition of radioligand binding ([3]; FlashPlate): + (“+” indicates greater than 50% inhibition at 10 μM); A4: inhibition of radioligand binding ([4]; FlashPlate): + (“+” indicates greater than 50% inhibition at 10 μM); A5: inhibition of radioligand binding ([5]; FlashPlate): + (“+” indicates greater than 50% inhibition at 10 μM); A6: inhibition of radioligand binding ([6]; [125I]-S36057, FlashPlate): + (“+” indicates greater than 50% inhibition at 10 μM); A7: inhibition of radioligand binding ([7]; FlashPlate): + (“+” indicates greater than 50% inhibition at 10 μM); A8: inhibition of radioligand binding ([8]; filtration): + (“+” indicates greater than 50% inhibition at 10 μM); A9: inhibition of radioligand binding ([9]; FlashPlate): − (“−” indicates less than 50% inhibition at 10 μM); A10: inhibition of radioligand binding ([10]; FlashPlate): − (“−” indicates less than 50% inhibition at 10 μM); A11: inhibition of radioligand binding ([11]; FlashPlate): − (“−” indicates less than 50% inhibition at 10 μM)
NCCCC(=O)NC1C(OCc2ccc3ccccc3c2)OC(COCc2ccc(Cl)cc2)C(O)C1OCc1ccccc1 (single isomer, unassigned) [compound 469]												− (“−” indicates less than 50% inhibition at 10 μM)	− (“−” indicates less than 50% inhibition at 10 μM)	+ (“+” indicates greater than 50% inhibition at 10 μM)	+ (“+” indicates greater than 50% inhibition at 10 μM)	− (“−” indicates less than 50% inhibition at 10 μM)	+ (“+” indicates greater than 50% inhibition at 10 μM)	− (“−” indicates less than 50% inhibition at 10 μM)	− (“−” indicates less than 50% inhibition at 10 μM)	− (“−” indicates less than 50% inhibition at 10 μM)	A3: inhibition of radioligand binding ([3]; human MC3 membranes, 10 µM): − (“−” indicates less than 50% inhibition at 10 μM); A7: inhibition of radioligand binding ([7]; human MOP membranes): − (“−” indicates less than 50% inhibition at 10 μM)
NCCCC(=O)NC1C(OCc2ccc3ccccc3c2)OC(COCc2ccccc2)C(O)C1OCc1ccccc1 (single isomer, unassigned) [compound 467]												− (“−” indicates less than 50% inhibition at 10 μM)	− (“−” indicates less than 50% inhibition at 10 μM)	− (“−” indicates less than 50% inhibition at 10 μM)	− (“−” indicates less than 50% inhibition at 10 μM)	− (“−” indicates less than 50% inhibition at 10 μM)	+ (“+” indicates greater than 50% inhibition at 10 μM)	− (“−” indicates less than 50% inhibition at 10 μM)	− (“−” indicates less than 50% inhibition at 10 μM)	− (“−” indicates less than 50% inhibition at 10 μM)	A3: inhibition of radioligand binding ([3]; human MC3 membranes): − (“−” indicates less than 50% inhibition at 10 μM); A7: inhibition of radioligand binding ([7]; human MOP membranes, 10 µM): − (“−” indicates less than 50% inhibition at 10 μM)
COC1O[C@H](COCC(=O)O)[C@@H](O)[C@H](OCc2ccccc2)[C@H]1NC(=O)c1cnc[nH]1 (stereo partly shown) [compound 128]	− (“−” indicates less than 50% inhibition at 10 μM)	− (“−” indicates less than 50% inhibition at 10 μM)	− (“−” indicates less than 50% inhibition at 10 μM)	− (“−” indicates less than 50% inhibition at 10 μM)	− (“−” indicates less than 50% inhibition at 10 μM)	− (“−” indicates less than 50% inhibition at 10 μM)	− (“−” indicates less than 50% inhibition at 10 μM)	+ (“+” indicates greater than 50% inhibition at 10 μM)	− (“−” indicates less than 50% inhibition at 10 μM)	− (“−” indicates less than 50% inhibition at 10 μM)	− (“−” indicates less than 50% inhibition at 10 μM)										
